A word on the IC50: it is the concentration needed to halve the response being measured.

In the test the target is T1, GST-Xa-hAAK1 (Homo sapiens, UniProt Q2M2I8).
T1 construct: GST (N); Factor Xa cleavage site (Xa) (internal); made in house
Kind of test: AAK1 Kinase Assay. It is filed as biochemical. To be noted: bacterially expressed GST-Xa-hAAK1 3.5 nM; ATP 22 μM; fluoresceinated peptide 1.5 μM; 3 hours at room temperature; Caliper LabChip 3000. The essentials:
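Bacterially expressed GST-Xa-hAAK1 (3.5 nM) phosphorylated 1.5 μM 5-FAM peptide with 22 μM ATP in Tris pH 7.4, MgCl2, DTT, 1.6% DMSO, 3 h at room temperature. EDTA-stopped; product separated electrophoretically on Caliper LabChip. IC50 from eleven concentrations by non-linear regression.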

T1 sequence (Q2M2I8 whole entry): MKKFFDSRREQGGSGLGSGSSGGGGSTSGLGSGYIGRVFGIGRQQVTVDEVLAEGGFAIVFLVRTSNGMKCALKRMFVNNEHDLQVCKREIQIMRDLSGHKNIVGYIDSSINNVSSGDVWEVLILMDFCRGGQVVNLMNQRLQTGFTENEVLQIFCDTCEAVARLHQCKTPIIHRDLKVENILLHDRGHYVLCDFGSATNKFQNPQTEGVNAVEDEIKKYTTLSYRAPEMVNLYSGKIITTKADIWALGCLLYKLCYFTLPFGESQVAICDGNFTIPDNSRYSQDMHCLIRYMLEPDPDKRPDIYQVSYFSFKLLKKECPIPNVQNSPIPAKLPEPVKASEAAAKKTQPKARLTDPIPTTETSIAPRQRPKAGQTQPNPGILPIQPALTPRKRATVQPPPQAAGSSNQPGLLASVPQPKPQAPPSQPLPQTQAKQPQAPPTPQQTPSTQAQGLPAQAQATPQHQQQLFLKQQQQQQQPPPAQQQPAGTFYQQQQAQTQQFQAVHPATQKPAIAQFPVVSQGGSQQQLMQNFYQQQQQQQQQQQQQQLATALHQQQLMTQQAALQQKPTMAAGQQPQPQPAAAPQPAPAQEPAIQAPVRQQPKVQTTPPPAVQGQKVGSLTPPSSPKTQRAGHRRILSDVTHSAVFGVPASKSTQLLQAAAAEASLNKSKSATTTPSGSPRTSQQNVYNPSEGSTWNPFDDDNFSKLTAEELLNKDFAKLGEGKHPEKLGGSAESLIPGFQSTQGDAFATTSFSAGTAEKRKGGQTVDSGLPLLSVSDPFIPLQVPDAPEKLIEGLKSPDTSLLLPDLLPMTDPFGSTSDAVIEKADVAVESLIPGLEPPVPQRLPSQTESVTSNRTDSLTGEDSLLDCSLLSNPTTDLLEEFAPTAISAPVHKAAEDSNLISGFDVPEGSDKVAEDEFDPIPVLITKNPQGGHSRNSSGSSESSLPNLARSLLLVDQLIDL

Take `CC(C)C[C@](C)(N)COc1ccc(-c2ncnc3cc(F)c(F)cc23)cc1C(F)(F)F` [Example 471, (S)-1-(4-(6,7-difluoroquinazolin-4-yl)-2-(trifluoromethyl)phenoxy)-2,4-dimethylpentan-2-amine]: the IC50 is 6.3 nM.
To `Cc1cc(-c2ccnc3ccnn23)ccc1OC[C@@](C)(N)CC(C)C` [Example 472, (S)-2,4-dimethyl-1-(2-methyl-4-(pyrazolo[1,5-a]pyrimidin-7-yl)phenoxy)pentan-2-amine] belongs 0.5 nM.
In the case of `CC(C)C[C@](C)(N)COc1ccc(-c2cnn3cccnc23)cc1C(F)(F)F` [Example 473, (S)-2,4-dimethyl-1-(4-(pyrazolo[1,5-a]pyrimidin-3-yl)-2-(trifluoromethyl)phenoxy)pentan-2-amine] it was 112 nM; in that of `Cc1nc(-c2cnn3cc(C#N)cnc23)ccc1OC[C@@](C)(N)CC(C)C` [Example 478, (S)-3-(5-((2-amino-2,4-dimethylpentyl)oxy)-6-methylpyridin-2-yl)pyrazolo[1,5-a]pyrimidine-6-carbonitrile], 11 nM.
In the case of `Cc1nc(-c2ccc(OC[C@@](C)(N)CC(C)C)c(C(F)(F)F)c2)c2ccsc2n1` [Example 481, (S)-2,4-dimethyl-1-(4-(2-methylthieno[2,3-d]pyrimidin-4-yl)-2-(trifluoromethyl)phenoxy)pentan-2-amine] it was 52 nM.
With `CC(C)C[C@](C)(N)COc1ccc(-c2ccnc3cc(C4CC4)nn23)cc1Cl` [Example 482, (S)-1-(2-chloro-4-(2-cyclopropylpyrazolo[1,5-a]pyrimidin-7-yl)phenoxy)-2,4-dimethylpentan-2-amine], the IC50 stood at 1.4 nM.
To `CC(C)C[C@](C)(N)COc1ccc(-c2ccnc3cc(C4CC4)nn23)cc1C(F)(F)F` [Example 483, (S)-1-(4-(2-Cyclopropylpyrazolo[1,5-a]pyrimidin-7-yl)-2-(trifluoromethyl)phenoxy)-2,4-dimethylpentan-2-amine] belongs 2.7 nM; to `CC(C)C[C@](C)(N)COc1ccc(-c2ccnc3cc(C(F)(F)F)nn23)cc1C#N` [Example 485, (S)-2-((2-amino-2,4-dimethylpentyl)oxy)-5-(2-(trifluoromethyl)pyrazolo[1,5-a]pyrimidin-7-yl)benzonitrile], 4.5 nM.
With `CC(C)C[C@](C)(N)COc1cnc(-c2ccnc3ccnn23)cc1C#N` [Example 486, (S)-5-((2-amino-2,4-dimethylpentyl)oxy)-2-(pyrazolo[1,5-a]pyrimidin-7-yl)isonicotinonitrile], the half-inhibitory concentration (IC50) came out at 1370 nM.
To `Cc1nc(-c2ccnc3ccnn23)ccc1OC[C@@](C)(N)CC(C)C` [Example 488, (S)-2,4-dimethyl-1-((2-methyl-6-(pyrazolo[1,5-a]pyrimidin-7-yl)pyridin-3-yl)oxy)pentan-2-amine] belongs 4 nM; to `CC(C)C[C@](C)(N)COc1cc(F)c(-c2ccnc3ccnn23)cc1F` [Example 489, (S)-1-(2,5-difluoro-4-(pyrazolo[1,5-a]pyrimidin-7-yl)phenoxy)-2,4-dimethylpentan-2-amine], 278 nM; to `Cc1nc(-c2ccnc3ccnn23)ccc1OCC(N)(CC(C)C)C(F)(F)F` (centres unmarked) [Example 490, 1,1,1-trifluoro-4-methyl-2-(((2-methyl-6-(pyrazolo[1,5-a]pyrimidin-7-yl)pyridin-3-yl)oxy)methyl)pentan-2-amine], 37 nM.
To `Cc1cn2nccc(-c3ccc(OC[C@@](C)(N)CC(C)C)c(C#N)c3)c2n1` [Example 492, (S)-2-((2-amino-2,4-dimethylpentyl)oxy)-5-(2-methylimidazo[1,2-b]pyridazin-8-yl)benzonitrile] belongs 1.8 nM; to `CC(C)C[C@](C)(N)COc1ccc(-c2ccnn3cc(C4CC4)nc23)cc1F` [Example 493, (S)-1-(4-(2-cyclopropylimidazo[1,2-b]pyridazin-8-yl)-2-fluorophenoxy)-2,4-dimethylpentan-2-amine], 15 nM.
With `CC(C)C[C@](C)(N)COc1ccc(-c2cc(Cl)nn3cc(C4CC4)nc23)cc1C#N` [Example 494, (5)-2-((2-amino-2,4-dimethylpentyl)oxy)-5-(6-chloro-2-cyclopropylimidazo[1,2-b]pyridazin-8-yl)benzonitrile], the half-maximal inhibitory concentration (IC50) amounted to 222 nM.
To `Cc1cn2nc(Cl)cc(-c3ccc(OC[C@@](C)(N)CC(C)C)c(C(F)(F)F)c3)c2n1` [Example 495, (S)-1-(4-(6-chloro-2-methylimidazo [1,2-b]pyridazin-8-yl)-2-(trifluoromethyl)phenoxy)-2,4-dimethylpentan-2-amine] belongs 66 nM; to `CC(C)C[C@](C)(N)COc1ccc(-c2cc(Cl)nn3cc(C4CC4)nc23)cc1C(F)(F)F` [Example 496, (S)-1-(4-(6-chloro-2-cyclopropylimidazo [1,2-b]pyridazin-8-yl)-2-(trifluoromethyl)phenoxy)-2,4-dimethylpentan-2-amine], 297 nM; to `Cc1cn2nccc(-c3ccc(OC[C@@](C)(N)CC(C)C)c(F)c3)c2n1` [Example 497, (S)-1-(2-fluoro-4-(2-methylimidazo [1,2-b]pyridazin-8-yl)phenoxy)-2,4-dimethylpentan-2-amine], 11 nM.
`Cc1cn2nccc(-c3ccc(OC[C@@](C)(N)CC(C)C)c(C(F)(F)F)c3)c2n1` [Example 498, (S)-2,4-dimethyl-1-(4-(2-methylimidazo[1,2-b]pyridazin-8-yl)-2-(trifluoromethyl)phenoxy)pentan-2-amine]: the 50% inhibitory concentration (IC50) turned out to be 0.5 nM.
To `CC(C)C[C@](C)(N)COc1ccc(-c2ccnn3cc(C4CC4)nc23)cc1C#N` [Example 499, (S)-2-((2-amino-2,4-dimethylpentyl)oxy)-5-(2-cyclopropylimidazo[1,2-b]pyridazin-8-yl)benzonitrile] belongs 1.2 nM.
In the case of `Cc1cc(-c2ccnn3cc(C(F)(F)F)nc23)ccc1OC[C@@](C)(N)CC(C)C` [Example 500, (S)-2,4-dimethyl-1-(2-methyl-4-(2-(trifluoromethyl)imidazo[1,2-b]pyridazin-8-yl)phenoxy)pentan-2-amine] it was 30 nM.
Regarding `CC(C)C[C@](C)(N)COc1ccc(-c2ccnn3cc(C(F)(F)F)nc23)cc1` [Example 501, (S)-2,4-dimethyl-1-(4-(2-(trifluoromethyl)imidazo[1,2-b]pyridazin-8-yl)phenoxy)pentan-2-amine], the half-maximal inhibitory concentration (IC50) came out at 69 nM.
In the case of `Cc1cc(-c2cnc3cccnn23)ccc1OC[C@@](C)(N)CC(C)C` [Example 502, (S)-1-(4-(imidazo[1,2-b]pyridazin-3-yl)-2-methylphenoxy)-2,4-dimethylpentan-2-amine], the IC50 is 144 nM.
In the case of `CC(C)C[C@](C)(N)COc1ccc(-c2cnc3cccnn23)cc1Cl` [Example 503, (S)-1-(2-chloro-4-(imidazo [1,2-b]pyridazin-3-yl)phenoxy)-2,4-dimethylpentan-2-amine] it was 62 nM.
In the case of `Cc1cc(-c2ccnn3cc(C(F)(F)F)nc23)cnc1OC[C@](C)(N)CC(C)C` [Example 504, (R)-2,4-dimethyl-1-((3-methyl-5-(2-(trifluoromethyl)imidazo[1,2-b]pyridazin-8-yl)pyridin-2-yl)oxy)pentan-2-amine] it was 606 nM.
In the case of `CC(C)C[C@](C)(N)COc1ccc(-c2cc(=O)[nH]cn2)cc1Cl` [Example 509, (S)-6-(4-((2-amino-2,4-dimethylpentyl)oxy)-3-chlorophenyl)pyrimidin-4(3H)-one] it was 6.1 nM.

The values above are taken from US10246469B2, “Biaryl kinase inhibitors” (BRISTOL-MYERS SQUIBB COMPANY, priority 2015, dated 2019).
